For 28 compounds, IC50 results are on record in US10968172B2, “USP30 inhibitors” (Mitobridge, Inc., priority 2017, dated 2021).

As a reminder, the pIC50 is the IC50 on a negative log10 scale, so that one unit is a factor of ten.

pIC50: −log10 of the molar value.

Sequence of USP30 (Q70CQ3 whole entry): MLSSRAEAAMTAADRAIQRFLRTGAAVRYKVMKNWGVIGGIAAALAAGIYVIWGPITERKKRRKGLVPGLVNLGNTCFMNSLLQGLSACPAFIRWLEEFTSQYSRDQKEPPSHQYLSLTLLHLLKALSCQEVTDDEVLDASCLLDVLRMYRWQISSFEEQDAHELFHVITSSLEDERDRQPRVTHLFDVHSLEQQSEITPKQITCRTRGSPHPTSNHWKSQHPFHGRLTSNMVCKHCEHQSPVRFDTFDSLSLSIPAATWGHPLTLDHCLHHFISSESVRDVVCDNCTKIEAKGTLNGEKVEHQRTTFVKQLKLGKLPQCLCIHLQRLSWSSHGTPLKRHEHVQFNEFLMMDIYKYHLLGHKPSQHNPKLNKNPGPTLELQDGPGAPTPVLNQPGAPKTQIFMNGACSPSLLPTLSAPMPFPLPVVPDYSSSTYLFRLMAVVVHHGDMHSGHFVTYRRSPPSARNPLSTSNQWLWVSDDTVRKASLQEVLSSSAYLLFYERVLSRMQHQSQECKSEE

The assay deals with USP30 (Homo sapiens (Human), UniProt Q70CQ3). In words: In vitro biochemical assay for USP30 enzyme (Ubiquitin-Rhodamine110 cleavage, fluorescence). The conditions noted are these: 20 nM USP30, 15 min pre-incubation, 100 nM Ub rhodamine substrate, 2 hrs at room temperature. The procedure:
In vitro biochemical assay for USP30 enzyme
The in vitro assay for USP30 evaluates the ability of a test compound to inhibit the activity of the enzyme to cleave ubiquitin from a substrate. Ubiquitin-rhodamine 110 is a quenched, fluorescent substrate for USP30. Cleavage of the amide bond between the C-terminal glycine of ubiquitin and rhodamine results in an increase in rhodamine fluorescence at 535 nm (Exc. 485 nm).
Incubation of the substrate in the presence or absence of USP30 was compared to confirm the deubiquitylating activity of USP30. The USP30 enzyme assay was performed by pre-incubating 20 nM of USP30 with varying concentration of a test compound in the assay buffer [PBS (pH 7.4), 1 mM DTT, 0.01% Tween 20, 0.01% BSA, DMSO final concentration is 1%] for 15 mins at room temperature, following which 100 nM of substrate Ub rhodamine was added and incubated at room temperature for 2 hrs and the plate was read for fluorescence intensity at Ex. 485 nm/535 nm in VICTOR X5 plate reader. The percent inhibition of activity of the enzyme is calculated by comparing counts in the presence and absence of compounds.
Test compounds were screened at various concentrations (10-12 tested concentrations) and dose response curves were generated was generated using GraphPad Prism software Version 7 (San Diego, Calif., USA) with non-linear regression curve fit for sigmoidal dose response (variable slope).
Compound `CC(C)(C)NS(=O)(=O)c1ccc(NC(=O)[C@H](Cc2cccc(C#N)c2)NC(=O)C2CCCCC2)cc1` [Compound 19ad, (S)-N-(1-((4-(N-(tert-butyl)sulfamoyl)phenyl)amino)-3-(3-cyanophenyl)-1-oxopropan-2-yl)cyclohexanecarboxamide] gave a pIC50 of 7.39.

Consider `CC(C)(C)NS(=O)(=O)c1cccc2c(NC(=O)[C@H](Cc3ccccc3Cl)NC(=O)c3ccccc3)cccc12` [Compound 7d, (S)-N-(1-((5-(N-(tert-butyl)sulfamoyl)naphthalen-1-yl)amino)-3-(2-chlorophenyl)-1-oxopropan-2-yl)benzamide], for which the pIC50 was < 5.00.

Turning to `CC(C)(C)NS(=O)(=O)c1cccc2c(NC(=O)[C@H](Cc3ccccc3)NC(=O)C3CCCCCC3)cccc12` [Compound 4p, (S)-N-(1-((5-(N-(tert-butyl)sulfamoyl)naphthalen-1-yl)amino)-1-oxo-3-phenylpropan-2-yl)cycloheptanecarboxamide], the pIC50 was 5.37. As for `CC(C)(C)NS(=O)(=O)c1ccc(NC(=O)[C@H](CC2CCCCC2)NC(=O)c2ccccc2F)cc1` [Compound 14f, (S)-N-(1-((4-(N-(tert-butyl)sulfamoyl)phenyl)amino)-3-cyclohexyl-1-oxopropan-2-yl)-2-fluorobenzamide], the figure is 6.34; as for `CC(C)(C)NS(=O)(=O)c1ccc(NC(=O)[C@H](Cc2ccccc2)NC(=O)C2CCCC2)cc1` [Compound 10c, (S)-N-(1-((4-(N-(tert-butyl)sulfamoyl)phenyl)amino)-1-oxo-3-phenylpropan-2-yl)cyclopentanecarboxamide], 7.15. On to `CC(C)(C)NS(=O)(=O)c1cccc2c(NC(=O)[C@H](Cc3ccccc3)NC(=O)c3ccc(F)cc3)cccc12` [Compound 4j, (S)-N-(1-((5-(N-(tert-butyl)sulfamoyl)naphthalen-1-yl)amino)-1-oxo-3-phenylpropan-2-yl)-4-fluorobenzamide], for which the pIC50 is 7.31. As for `CC(C)(C)NS(=O)(=O)c1cccc2c(NC(=O)[C@H](Cc3ccccc3)NC(=O)C3CCC(F)(F)CC3)cccc12` [Compound 4n, (S)—N-(1-((5-(N-(tert-butyl)sulfamoyl)naphthalen-1-yl)amino)-1-oxo-3-phenylpropan-2-yl)-4,4-difluorocyclohexane-1-carboxamide], the figure is 7.01; as for `COC(=O)c1ccc(C(=O)N[C@@H](Cc2ccccc2)C(=O)Nc2ccc(S(=O)(=O)NC(C)(C)C)cc2)cc1` [Compound 10g, methyl (S)-4-((1-((4-(N-(tert-butyl)sulfamoyl)phenyl)amino)-1-oxo-3-phenylpropan-2-yl)carbamoyl)benzoate], < 5.00; as for `CC(C)(C)NS(=O)(=O)c1ccc(NC(=O)[C@H](CC2CCCCC2)NC(=O)c2cccc(C#N)c2)cc1` [Compound 14i, (S)-N-(1-((4-(N-(tert-butyl)sulfamoyl)phenyl)amino)-3-cyclohexyl-1-oxopropan-2-yl)-3-cyanobenzamide], < 5.00. As for `Cc1ccccc1C[C@H](NC(=O)c1ccccc1)C(=O)Nc1cccc2c(S(=O)(=O)NC(C)(C)C)cccc12` [Compound 7l, (S)-N-(1-((5-(N-(tert-butyl)sulfamoyl)naphthalen-1-yl)amino)-1-oxo-3-(o-tolyl)propan-2-yl)benzamide], the figure is < 5.00. The result for `CC(C)(C)NS(=O)(=O)c1ccc(NC(=O)[C@H](CC2CCCCC2)NC(=O)c2ccc(F)cc2)cc1` [Compound 14c, (S)-N-(1-((4-(N-(tert-butyl)sulfamoyl)phenyl)amino)-3-cyclohexyl-1-oxopropan-2-yl)-4-fluorobenzamide] reads 7.64; that for `CC(C)(C)NS(=O)(=O)c1cccc2c(NC(=O)[C@H](Cc3ccc(O)cc3)NC(=O)c3ccccc3)cccc12` [Compound 7b, (S)-N-(1-((5-(N-(tert-butyl)sulfamoyl)naphthalen-1-yl)amino)-3-(4-hydroxyphenyl)-1-oxopropan-2-yl)benzamide], 6.28; that for `CC1CCC(C(=O)N[C@@H](Cc2ccccc2)C(=O)Nc2cccc3c(S(=O)(=O)NC(C)(C)C)cccc23)CC1` (stereo partly drawn) [Compound 4t, (S)-N-(1-((5-(N-(tert-butyl)sulfamoyl)naphthalen-1-yl)amino)-1-oxo-3-phenylpropan-2-yl)-4-methylcyclohexane-1-carboxamide], < 5.00.

As for `CC(C)(C)NS(=O)(=O)c1cccc2c(NC(=O)[C@H](Cc3ccccc3)NC(=O)c3ccc[nH]3)cccc12` [Compound 4y, (S)-N-(1-((5-(N-(tert-butyl)sulfamoyl)naphthalen-1-yl)amino)-1-oxo-3-phenylpropan-2-yl)-1H-pyrrole-2-carboxamide], the pIC50 was 5.72. The result for `CC(C)(C)NS(=O)(=O)c1ccc(NC(=O)[C@H](Cc2ccc(F)cc2)NC(=O)c2ccc(F)cc2)cc1` [Compound 19k, (S)-N-(1-((4-(N-(tert-butyl)sulfamoyl)phenyl)amino)-3-(4-fluorophenyl)-1-oxopropan-2-yl)-4-fluorobenzamide] reads 7.59; that for `CC(C)(C)NS(=O)(=O)c1cccc2c(NC(=O)[C@H](Cc3ccccc3)NC(=O)CCc3ccccc3)cccc12` [Compound 4f, (S)-N-(5-(N-(tert-butyl)sulfamoyl)naphthalen-1-yl)-3-phenyl-2-(3-phenylpropanamido)propanamide], < 5.00. As for `CC(C)(C)NS(=O)(=O)c1cccc2c(NC(=O)[C@H](Cc3ccccc3)NC(=O)c3ncccn3)cccc12` [Compound 4o, (S)-N-(1-((5-(N-(tert-butyl)sulfamoyl)naphthalen-1-yl)amino)-1-oxo-3-phenylpropan-2-yl)pyrimidine-2-carboxamide], the figure is < 5.00. As for `CC(C)(C)NS(=O)(=O)c1ccc(NC(=O)[C@H](Cc2ccc(F)cc2)NC(=O)c2ccccc2)cc1` [Compound 19b, (S)-N-(1-((4-(N-(tert-butyl)sulfamoyl)phenyl)amino)-3-(4-fluorophenyl)-1-oxopropan-2-yl)benzamide], the figure is 6.88; as for `CC(C)(C)NS(=O)(=O)c1cccc2c(NC(=O)[C@H](Cc3ccccc3)NC(=O)C3CC3)cccc12` [Compound 4d, (S)-N-(1-((5-(N-(tert-butyl)sulfamoyl)naphthalen-1-yl)amino)-1-oxo-3-phenylpropan-2-yl)cyclopropanecarboxamide], < 5.00; as for `CC(C)NS(=O)(=O)c1ccc(NC(=O)[C@H](Cc2ccccc2)NC(=O)C2CCCCC2)cc1` [Compound 19h, (S)-N-(1-((4-(N-isopropylsulfamoyl)phenyl)amino)-1-oxo-3-phenylpropan-2-yl)cyclohexanecarboxamide], 6.75. `COc1ccc(C[C@H](NC(=O)c2cccnc2)C(=O)Nc2ccc(S(=O)(=O)NC(C)(C)C)cc2)cc1` [Compound 19aa, (S)-N-(1-((4-(N-(tert-butyl)sulfamoyl)phenyl)amino)-3-(4-methoxyphenyl)-1-oxopropan-2-yl)nicotinamide] gave a pIC50 of 6.68. The result for `CC(C)(C)NS(=O)(=O)c1cccc2c(NC(=O)[C@H](Cc3ccc(Cl)cc3)NC(=O)c3ccccc3)cccc12` [Compound 7n, (S)-N-(1-((5-(N-(tert-butyl)sulfamoyl)naphthalen-1-yl)amino)-3-(4-chlorophenyl)-1-oxopropan-2-yl)benzamide] reads 6.35; that for `CC(C)(C)NS(=O)(=O)c1cccc2c(NC(=O)[C@H](Cc3ccccc3)NC(=O)C3CCOCC3)cccc12` [Compound 4k, (S)-N-(1-((5-(N-(tert-butyl)sulfamoyl)naphthalen-1-yl)amino)-1-oxo-3-phenylpropan-2-yl)tetrahydro-2H-pyran-4-carboxamide], < 5.00; that for `CC(C)(C)NS(=O)(=O)c1ccc(NC(=O)[C@H](CC2CCCCC2)NC(=O)C2CCCC2)cc1` [Compound 14e, (S)-N-(1-((4-(N-(tert-butyl)sulfamoyl)phenyl)amino)-3-cyclohexyl-1-oxopropan-2-yl)cyclopentanecarboxamide], 6.92. For the compound `CC(C)(C)NS(=O)(=O)c1ccc(NC(=O)[C@H](Cc2ccccc2)NC(=O)c2ccc(C(=O)O)cc2)cc1` [Compound 10f, (S)-4-((1-((4-(N-(tert-butyl)sulfamoyl)phenyl)amino)-1-oxo-3-phenylpropan-2-yl)carbamoyl)benzoic acid], the pIC50 is < 5.00. As for `COc1ccc(C[C@H](NC(=O)c2ccc(F)cc2)C(=O)Nc2ccc(S(=O)(=O)NC(C)(C)C)cc2)cc1` [Compound 19f, (S)-N-(1-((4-(N-(tert-butyl)sulfamoyl)phenyl)amino)-3-(4-methoxyphenyl)-1-oxopropan-2-yl)-4-fluorobenzamide], the figure is 7.66; as for `CC(C)(C)NS(=O)(=O)c1cccc2c(NC(=O)[C@H](Cc3cnc[nH]3)NC(=O)c3ccccc3)cccc12` [Compound 7i, (S)-N-(1-((5-(N-(tert-butyl)sulfamoyl)naphthalen-1-yl)amino)-3-(1H-imidazol-5-yl)-1-oxopropan-2-yl)benzamide], < 5.00. The result for `CC(C)(C)NS(=O)(=O)c1cccc2c(NC(=O)[C@H](Cc3ccccc3)NC(=O)C3CCCCC3)cccc12` [Compound 4c, (S)-N-(1-((5-(N-(tert-butyl)sulfamoyl)naphthalen-1-yl)amino)-1-oxo-3-phenylpropan-2-yl)cyclohexanecarboxamide] reads 6.90.
